Data reported in patent US3950418A, “Vitamin A acid amides” (Hoffmann-La Roche Inc., priority 1970, dated 1976).

What was measured:
Type in all cases: in vivo
[1] = Acute toxicity, testing in the mouse; conditions: in vivo, in rape oil; for LD50 at 240 h: 10 days
Description: (§1) Toxicity tests carried out in mice and rats gave the following results for acute toxicity:
(§2) 1. Vitamin A acid ethyl amide in rape oil (per os and intraperitoneal administration)
(§3) 2. Vitamin A acid ethanol amide in rape oil (intraperitoneal administration)
(§4) 3. Vitamin A acid diethyl amide, vitamin A acid n-butyl amide, vitamin A acid phenyl amide, vitamin A acid isopropyl amide, or vitamin A acid methyl amide in rape oil (intraperitoneal administration)

mouse = test: Acute toxicity, testing in the mouse; conditions: in rape oil
Description: as §1, §2, §3, §4

[2] = Acute toxicity, testing in the rat; conditions: in vivo, in rape oil, per os and intraperitoneal administration
Description: as §1
(§5) Vitamin A acid ethyl amide in rape oil (per os and intraperitoneal administration)

rat = test: Acute toxicity, testing in the rat; conditions: in rape oil, per os and intraperitoneal administration
Description: as §1, §5

[3] = ip, intraperitoneal administration
[4] = intraperitoneal administration, 24 hrs.
[5] = intraperitoneal administration, 10 days
[6] = per os and intraperitoneal administration
[7] = per os and intraperitoneal administration, 20 days
[8] = per os and intraperitoneal administration, 24 hrs.
[9] = per os and intraperitoneal administration, 10 days

Row | Structure (SMILES) | LD50 at 24 h [1, 3] | LD50 at 240 h [1, 3] | LD10 (mouse; [4]) | LD90 (mouse; [4]) | LD10 (mouse; [5]) | LD90 (mouse; [5]) | also measured
1 | CCN(CC)C(=O)/C=C(C)/C=C/C=C(C)/C=C/C1=C(C)CCCC1(C)C [Vitamin A acid diethyl amide, vitamin A acid diethyl amide] | > 4000 mg/kg | > 4000 mg/kg | > 4000 mg/kg | > 4000 mg/kg | > 4000 mg/kg | > 4000 mg/kg | –
2 | CC1=C(/C=C/C(C)=C/C=C/C(C)=C/C(=O)NCCO)C(C)(C)CCC1 [Vitamin A acid ethanol amide, vitamin A acid ethanol amide] | > 4000 mg/kg | 1000 mg/kg | > 4000 mg/kg | > 4000 mg/kg | 710 mg/kg | 1400 mg/kg | –
3 | CCNC(=O)/C=C(C)/C=C/C=C(C)/C=C/C1=C(C)CCCC1(C)C [Vitamin A acid ethyl amide, vitamin A acid monoethyl amide] | – | – | – | – | – | – | LD50 at 24 h ([2]; 24 hrs.): > 4000 mg/kg; LD50 at 240 h ([2]; 10 days): > 4000 mg/kg; LD10 (rat; 24 hrs.): > 4000 mg/kg; LD90 (rat; 24 hrs.): > 4000 mg/kg; LD10 (rat; 10 days): > 4000 mg/kg; LD90 (rat; 10 days): > 4000 mg/kg; LD50 at 24 h [1, 6]: > 4000 mg/kg; LD50 at 240 h [1, 6]: > 4000 mg/kg; LD50 at 480 h [1, 7]: > 4000 mg/kg; LD10 (mouse; [8]): > 4000 mg/kg; LD90 (mouse; [8]): > 4000 mg/kg; LD10 (mouse; [9]): > 4000 mg/kg; LD90 (mouse; [9]): > 4000 mg/kg; LD10 (mouse; [7]): > 4000 mg/kg; LD90 (mouse; [7]): > 4000 mg/kg
4 | CC1=C(/C=C/C(C)=C/C=C/C(C)=C/C(=O)NC(C)C)C(C)(C)CCC1 [vitamin A acid isopropyl amide] | > 4000 mg/kg | > 4000 mg/kg | > 4000 mg/kg | > 4000 mg/kg | > 4000 mg/kg | > 4000 mg/kg | –
5 | CNC(=O)/C=C(C)/C=C/C=C(C)/C=C/C1=C(C)CCCC1(C)C [vitamin A acid methyl amide] | > 4000 mg/kg | > 4000 mg/kg | > 4000 mg/kg | > 4000 mg/kg | > 4000 mg/kg | > 4000 mg/kg | –
6 | CCCCNC(=O)/C=C(C)/C=C/C=C(C)/C=C/C1=C(C)CCCC1(C)C [vitamin A acid n-butyl amide] | > 4000 mg/kg | > 4000 mg/kg | > 4000 mg/kg | > 4000 mg/kg | > 4000 mg/kg | > 4000 mg/kg | –
7 | CC1=C(/C=C/C(C)=C/C=C/C(C)=C/C(=O)Nc2ccccc2)C(C)(C)CCC1 [vitamin A acid phenyl amide] | > 4000 mg/kg | > 4000 mg/kg | > 4000 mg/kg | > 4000 mg/kg | > 4000 mg/kg | > 4000 mg/kg | –
